Reference: patent US20250127740A1, “COMPOSITION CONTAINING 3-HYDROXYANTHRANILIC ACID AND COMPOUNDS THAT ALTER IRON HOMEOSTASIS AND METHOD OF ITS USE” (priority 2021, published 2025)

Legend:
bacterial growth = assay: Growth lag-time in liquid media; assay type: cell-based; conditions: 1 mM 3HAA, 15 uM DFO, alone or combined
Procedure: By contrast, 1 mM 3HAA alone increased lag-time by 6% individually. 15 uM DFO alone increased lag-time by 4% individually. Combination of 1 mM 3HAA with 15 uM DFO provided multiple fold impact on growth inhibition that is statistically significant to either single treatment alone.

E. coli [1] = assay: Colony size of E. coli on plates; assay type: cell-based; conditions: for effect on colony size (E. coli): 1 mM 3HAA or 8 mM FAC alone
Procedure: To test the effects of 3HAA, DFO and FAC on colony size, colony size was measured for E. coli in plates containing 1 mM 3HAA, 15 uM DFO, and 8 mM FAC alone and in combination.

C. elegans = assay type: in vivo; conditions: added to culture medium of haao-1 knockout worms (elevated endogenous 3HAA)
Description: Using the haao-1 knockout strain exposes the animals, but not their bacterial food source, to 3HAA.

E. coli [2] = assay type: cell-based; conditions: different dosages; liquid media OD 600 nm and CFUs on solid media; single compound
Procedure: (§1) 3HAA was tested for its ability to negatively impact bacterial growth. 3HAA was tested at different dosages for inhibition of E. coli and P. aeruginosa growth in liquid media (measured by optical density at 600 nm) and colony forming units (CFUs) on solid media.
(§2) Deferoxamine (DFO) was also tested for its ability to impact bacterial growth. Deferoxamine was tested at different dosages for inhibition of E. coli and P. aeruginosa growth in liquid media (measured by optical density at 600 nm) and CFUs on solid media.

E. coli infection = assay: Infection of C. elegans challenged with fluorescently labeled E. coli; assay type: in vivo; conditions: fluorescence microscopy over 7 days
Description: Infection was monitored using fluorescence microscopy over 7 days. Heatmap of infection progression of individual animals over days—purple 32 not infected, red=high infection.

P. aeruginosa [3] = assay: Inhibition of P. aeruginosa growth in liquid media (OD 600 nm) and CFUs on solid media; assay type: cell-based; conditions: different dosages, single compound
Procedure: as §1, §2

E. coli [4] = assay: Colony formation (CFUs) of E. coli on culture plate; assay type: cell-based
P. aeruginosa [5] = assay: Colony formation (CFUs) of P. aeruginosa on culture plate; assay type: cell-based; conditions: 1 mM 3HAA and 15 uM DFO alone or in combination
Procedure: To test the effects of 3HAA and DFO on colony formation of P. aeruginosa, 1 mM 3HAA and 15 uM DFO alone or in combination were added to culture plate containing P. aeruginosa.

E. coli [6] = assay: Pre-treatment of E. coli in liquid media, then colony count on DFO+3HAA plates; assay type: cell-based; conditions: pretreatment 1 mM 3HAA or 15 uM DFO, 16 hr at 37 degrees
Procedure: E. coli inoculates were grown in liquid media containing either control (no additives), 1 mM 3HAA or 15 uM DFO for 16 hr at 37 degrees with shaking. The cultures were spotted to either Control plates (no additives) or plate containing DFO+3HAA and left to dry at room temperature. After incubated at 37 degrees for 16 hours, colonies were counted.

[7] = 1 mM 3HAA and 8 mM FAC alone or in combination

| Compound | increase in growth lag-time (bacterial growth) | decrease of colony size / colony area (E. coli) (E. coli [1]; 1 mM 3HAA, 15 uM DFO, 8 mM FAC, alone or in combination) | toxicity to C. elegans relative to wild type animals (C. elegans) | impact on growth of E. coli (E. coli [2]) | protection from E. coli infection (E. coli infection; haao-1 knockout worms (high endogenous 3HAA)) | protection from E. coli infection (E. coli infection; wild type worms) | impact on growth of P. aeruginosa (P. aeruginosa [3]) | effect on colony size (E. coli) (E. coli [1]) | impact on colony formation (E. coli) (E. coli [4]; [7]) | impact on colony formation (P. aeruginosa) (P. aeruginosa [5]) | impact on colony formation (E. coli) (E. coli [4]; 1 mM 3HAA or 15 uM DFO alone) | sensitization of bacteria to the 3HAA and DFO combination by pretreatment (E. coli [6]) |
| --- | --- | --- | --- | --- | --- | --- | --- | --- | --- | --- | --- | --- |
| CC(=O)N(O)CCCCCNC(=O)CCC(=O)N(O)CCCCCNC(=O)CCC(=O)N(O)CCCCCN [DFO, deferoxamine, reference compound] | 4% | ~8% | neither the combination of DFO and elevated 3HAA (haao-1) nor the combination of FAC with elevated 3HAA (haao-1) were toxic | – | – | – | – | – | – | – | – | – |
| ferric ammonium citrate [FAC] | – | – | – | very little impact | This protection was enhanced | protected from infection | very little impact | increased colony size | no significant impact was observed | – | – | – |
| Nc1c(O)cccc1C(=O)O [3HAA, 3-hydroxyanthanilic acid] | 6% | – | – | negatively affects growth of both E. coli and P. aeruginosa, but only at high doses | – | – | negatively affects growth of both E. coli and P. aeruginosa, but only at high doses | increased colony size | no significant impact was observed | neither affected colony formation alone | Neither 1 mM 3HAA nor 15 uM DFO alone showed significant impact | sensitizes bacteria to the combination of 3HAA and DFO |
